In US20110172163A1, “Novel Protease Inhibitors” (QUEENSLAND UNIVERSITY OF TECHNOLOGY, priority 2008, published 2011):
Values joined by “and” are separate entries in the source; they are usually repeats but may differ in a detail not shown here. Identical values can stand only once. Like-named read-outs stand apart in the source and are kept apart here. Bridge positions count the residues as written; N and C are the ends. Peptide text beside a SMILES is read from it.

Assays:
KLK4 [1] = target: T1, KLK4 (Homo sapiens, UniProt Q9Y5K2); test: Inhibitor kinetics: KLK4 amidolytic activity with peptide-pNA substrates; format: biochemical; set-up: pro-region of PSA (KLK3), replacing the native KLK4 pro-region (N, cleaved yes); made in house
Description: (§1) Human recombinant KLK4 was expressed in E. coli using a previously described chimeric KLK4 plasmid construct where the native pro-region was replaced with the pro-region of PSA, enabling autoactivation. Protein was expressed as inclusion bodies which were isolated and solubilised as described previously to yield 90% pure KLK4. Protein refolding was performed by dilution into 100 volumes of refolding buffer I (2 M urea, 0.1M NaCl, 5 mM GSH, 0.5 mM GSSG, 10 mM benzamidine, 50 mM tris HCl pH 8.0, 2 mM CaCl2) over 44 hours before further dilution into 3 volumes refolding buffer II (refolding buffer I with 0.5 M urea 0.5 mM GSH, 0.05 mM GSSG, 2 mM CaCl2) over another 24 hours. Dialysis was performed as previously described (with additional 2 mM CaCl2 to reduce aggregation) before concentration using UNO sphere Q (Biorad) eluting with tris buffered saline (pH 7.5)/2 mM CaCl2. Subsequently, the material was purified to apparent homogeneity (according to coomassie blue stained SDS PAGE) by gel filtration using Sephacryl S-200 (GE Health Care) pre-equilibrated with 50 mM Tris-HCl pH 7.5, 20 mM NaCl and 2 mM CaCl2.
All enzymes and substrates were obtained from Sigma Chemicals if not otherwise specified. Bacterially expressed human KLK4 (37 ng), bovine β-trypsin (20 ng), bovine thrombin (20 ng), bovine α-chymotrypsin (0.5 μg), protease (0.5 μg; Streptomyces griseus type XIV), bovine plasminogen (0.5 μg), and human matriptase (30 ng; R&D Systems) were incubated with various concentrations of inhibitors in 200 μL assay buffer for 10 minutes prior to initiation by the addition of 100 μL of 0.3 mM of peptide-pNA substrates (FVQR-pNA: KLK4; BAPNA: trypsin, (Streptomyces griseus Type XIV Protease and bovine plasma plasminogen); Bz-Phe-Val-Arg-pNA: thrombin and matriptase; Trp-pNA: α-chymotrypsin; Leu-pNA: (Streptomyces griseus Type XIV Protease and bovine plasma plasminogen). The release of pNa moiety was monitored as described above for 7 minutes with each point being the average of three independent triplicate reactions. IC50 was determined using the Prism 5 software suite (GraphPad software Inc.).

bovine β-trypsin = target: T2, bovine β-trypsin (Bos taurus, UniProt P00760); test: Inhibitor kinetics: trypsin amidolytic activity; format: biochemical; details: substrate BAPNA (0.2 mM)
T2 construct: bovine β-trypsin (20 ng); purchased Sigma Chemicals
T2 sequence (P00760 24-246): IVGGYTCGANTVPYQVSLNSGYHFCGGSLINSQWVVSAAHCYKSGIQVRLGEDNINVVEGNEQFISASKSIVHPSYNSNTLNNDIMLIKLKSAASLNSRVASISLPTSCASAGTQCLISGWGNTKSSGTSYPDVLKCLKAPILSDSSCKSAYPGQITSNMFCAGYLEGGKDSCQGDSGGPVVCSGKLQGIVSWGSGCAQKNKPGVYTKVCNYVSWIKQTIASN
Description: (§2) All enzymes and substrates were obtained from Sigma Chemicals if not otherwise specified. […] The release of pNa moiety was monitored as described above for 7 minutes with each point being the average of three independent triplicate reactions. IC50 was determined using the Prism 5 software suite (GraphPad software Inc.).

bovine thrombin = target: T3, bovine thrombin (Bos taurus, UniProt P00735); test: Inhibitor kinetics: thrombin amidolytic activity; format: biochemical; details: substrate Bz-FVR-pNA (0.2 mM); read-out: IC50
T3 construct: purchased Sigma Chemicals
Description: as §2

human matriptase = target: T4, human matriptase (Homo sapiens, UniProt Q9Y5Y6); test: Inhibitor kinetics: matriptase amidolytic activity; format: biochemical; details: substrate Bz-FVR-pNA (0.2 mM); read-out: IC50
T4 construct: purchased R&D Systems
T4 sequence (Q9Y5Y6 615-855 limits assumed): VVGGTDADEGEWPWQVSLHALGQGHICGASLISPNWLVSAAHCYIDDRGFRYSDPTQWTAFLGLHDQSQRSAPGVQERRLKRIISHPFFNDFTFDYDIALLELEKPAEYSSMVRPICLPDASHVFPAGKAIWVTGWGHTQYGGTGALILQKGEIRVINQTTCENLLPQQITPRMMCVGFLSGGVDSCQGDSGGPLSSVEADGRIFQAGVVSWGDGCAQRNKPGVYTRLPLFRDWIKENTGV
Description: as §2

bovine α-chymotrypsin = target: T5, bovine α-chymotrypsin (Bos taurus, UniProt P00766); test: Inhibitor kinetics: α-chymotrypsin amidolytic activity; format: biochemical; details: substrate W-pNA (0.2 mM); read-out: IC50
T5 construct: purchased Sigma Chemicals
Description: as §2

[2] = system: protease (Streptomyces griseus type XIV); test: Inhibitor kinetics: Streptomyces griseus type XIV protease; format: biochemical; details: substrate L-pNA
Description: as §2

[3] = Stability of SFTI variants in contact with prostate cancer cells in vitro; format: in vitro ADME; details: prostate cancer cell lines in serum containing medium
Description: Cell monolayers of LNCaP, 22Rv1 and PC3 cells were established in RPMI 1640 medium containing 10% fetal calf serum. Each cell line was treated +/−1 μM SFTI-FCQR contained in 4.0 mL RPMI media (as above) with a vehicle control to account for inhibition by intrinsic media factors. 25 μL samples of media were taken at 0, 24, 48, 72, 96 and 120 hrs timepoints. Media samples were boiled at 97° C. for 15 min, centrifuged at 14,000 rpm for 5 min to remove cellular debris and precipitated protein. Residual SFTI-FCQR inhibitory activity in the medium was determined against recombinant KLK4 using FVQR-pNA as a peptide substrate as above using 15ng KLK4 and 30 nmol FVQR-pNA with 2.5 μL and […] of media+/−SFTI-FCQR added from each treatment.

Figure 3 (D) = test: Figure 3 (D)
Description: Table printed on a drawing sheet, Figure 3 (D)
The patent's description of the figure: FIG. 3. Stability of SFTI variants in contact with prostate cancer cells in vitro. Residual SFTI-FCQR was assayed in tissue culture supernatants from prostate cancer cells treated with a single dose of inhibitor at time =0. Stability was assessed against LNCaP (closed circles), 22RV1 (open circles) and PC3 cells (triangles) for (A) SFTI-FCQR, (B) SFTI-FCQR Asn14 and (C) SFTI-FCQR Lys14 as summarized in (D). Data represented as mean±SEM from three independent experiments in triplicates.
First reader's note: Half-life of residual inhibitor activity in culture supernatants of prostate cancer cell lines, summarising panels (A)-(C).

trypsin = target: T6, trypsin (Bos taurus, UniProt P00760); test: Protein proteolysis: fibrinogen digestion by trypsin (SDS-PAGE); format: biochemical, bovine; details: SDS-PAGE
T6 construct: purchased Sigma Chemicals
Description: (§3) Fibrinogen was solubilised in assay buffer to a final concentration of 1 mg/ml and digested with KLK4 (+/−inhibitor) over a period of 90 minutes at 37° C. Typically assays consisted of 5 μM protein substrate and 2.5 nM KLK4 protein or 1 nM trypsin made up to a final volume of 8 μl with assay buffer. Proteolysis was initiated by addition of KLK4 and terminated by addition of SDS PAGE sample buffer and heat denaturation at 100° C. for 5 minutes. Hydrolysis products were resolved on 10% SDS PAGE gels and compared with incubations terminated immediately after initiation (time 0), and substrate proteins incubated in assay buffer for 90 minutes in the absence of KLK4 or 4-16 mins with trypsin.

Thrombin = details: cited from earlier work
KLK4 [4] = target: T1, KLK4; test: Protein proteolysis: fibrinogen digestion by KLK4 (SDS-PAGE); format: biochemical; set-up: pro-region of PSA (KLK3), replacing the native KLK4 pro-region (only if the E. coli preparation was used) (N, cleaved yes); made in house; details: inhibitor at 2 μM
Description: as §3

iKLK14 = target: T7, iKLK14 (Homo sapiens, UniProt Q9P0G3); test: Inhibitor kinetics: KLK14 amidolytic activity; format: biochemical
T7 construct: made in house

KLK12 = KLK12 (Homo sapiens, UniProt Q9UKR0); test: Protein proteolysis: fibrinogen digestion by KLK12; format: biochemical; details: at a concentration of 10000 nM
KLK14 = KLK14 (Homo sapiens, UniProt Q9P0G3); test: Protein proteolysis: fibrinogen digestion by KLK14; format: biochemical; details: at a concentration of 10000 nM
[5] = substrate: CC(=O)N[C@@H](Cc1ccccc1)C(=O)N[C@H](C(=O)N[C@@H](CCCNC(=N)N)C(=O)Nc1ccc([N+](=O)[O-])cc1)C(C)C; test: Kinetic studies of para-nitroanilide substrates with KLK4; format: biochemical, human; details: other: para-Nitroanilide substrate
Description: as §1
(§4) Kinetic Studies Active site titration was carried out according to Beynon et al., replacing α1-proteinase inhibitor with soybean trypsin inhibitor. Enzymatic activity assays were performed with 4.9 nM KLK4 and substrate concentrations in the range of 0-600 μM in 300 μL of assay buffer with hydrolysis monitored over 5 minutes as described for the substrate screen. The data was fitted to the Michaelis-Menten equation by […] analysis using the Prism 5 software suite (GraphPad Software Inc.).

[6] = substrate: CC(C)[C@H](NC(=O)[C@H](Cc1ccccc1)NC(=O)c1ccccc1)C(=O)N[C@@H](CCCNC(=N)N)C(=O)Nc1ccc([N+](=O)[O-])cc1; test: as above; format: biochemical, human; details: other: para-Nitroanilide substrate
Description: as §1, §4

[7] = substrate: CSCC[C@H](NC(=O)[C@@H](NC(=O)[C@@H](N)Cc1ccccc1)C(C)C)C(=O)N[C@@H](CCCNC(=N)N)C(=O)Nc1ccc([N+](=O)[O-])cc1; test: as above; format: biochemical, human; details: other: para-Nitroanilide substrate
Description: as §1, §4

[8] = substrate FVQR-pNA (0.2 mM), read-out: IC50

T7 sequence (Q9P0G3 41-267): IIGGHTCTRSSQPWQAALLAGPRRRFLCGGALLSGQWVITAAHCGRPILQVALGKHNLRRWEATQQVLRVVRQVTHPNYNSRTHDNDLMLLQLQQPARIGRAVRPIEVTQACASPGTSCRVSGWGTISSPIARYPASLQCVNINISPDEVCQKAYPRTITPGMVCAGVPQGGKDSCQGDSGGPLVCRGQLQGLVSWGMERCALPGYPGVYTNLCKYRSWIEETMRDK
Sequence of KLK14 (Q9P0G3 35-267 limits assumed): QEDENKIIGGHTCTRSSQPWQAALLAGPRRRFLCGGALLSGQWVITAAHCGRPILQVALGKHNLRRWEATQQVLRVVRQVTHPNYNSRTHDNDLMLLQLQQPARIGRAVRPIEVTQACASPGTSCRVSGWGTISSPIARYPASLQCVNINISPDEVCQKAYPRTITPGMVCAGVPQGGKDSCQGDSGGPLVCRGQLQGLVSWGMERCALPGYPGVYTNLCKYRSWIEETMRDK
Sequence of KLK12 (Q9UKR0 18-248): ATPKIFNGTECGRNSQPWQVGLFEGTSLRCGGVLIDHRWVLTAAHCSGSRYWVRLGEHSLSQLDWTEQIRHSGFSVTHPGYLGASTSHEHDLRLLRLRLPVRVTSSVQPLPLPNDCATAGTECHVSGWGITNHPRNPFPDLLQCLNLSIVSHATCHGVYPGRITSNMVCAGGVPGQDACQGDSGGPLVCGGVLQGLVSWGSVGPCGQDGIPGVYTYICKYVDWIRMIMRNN
T6 sequence (P00760 18-246 limits assumed): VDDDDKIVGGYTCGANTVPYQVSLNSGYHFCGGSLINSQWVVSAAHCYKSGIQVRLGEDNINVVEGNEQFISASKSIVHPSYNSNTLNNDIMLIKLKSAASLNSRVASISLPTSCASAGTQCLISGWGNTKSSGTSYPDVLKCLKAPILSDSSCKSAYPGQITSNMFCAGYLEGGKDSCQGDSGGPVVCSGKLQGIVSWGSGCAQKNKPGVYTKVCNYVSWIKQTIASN

Molecule: CC[C@H](C)[C@@H]1NC(=O)[C@H](C)NC(=O)[C@@H]2CCCN2C(=O)[C@H]([C@@H](C)CC)NC(=O)[C@H](CO)NC(=O)[C@H](CCCNC(=N)N)NC(=O)[C@H](CCC(N)=O)NC(=O)[C@@H]2CSSC[C@H](NC1=O)C(=O)N[C@@H](Cc1ccccc1)C(=O)N1CCC[C@H]1C(=O)N[C@@H](CC(=O)O)C(=O)NCC(=O)N[C@@H](Cc1ccccc1)C(=O)N2 [SFTI-FCQR Ala9] (cyclo(AICFPDGFCQRSIP); disulfide 3-9)
- IC50 (KLK4 [1]; [8]): 1140 ± 76 nM

Molecule: CC[C@H](C)[C@@H]1NC(=O)[C@@H]2CCCN2C(=O)[C@@H]2CCCN2C(=O)[C@H]([C@@H](C)CC)NC(=O)[C@H](CO)NC(=O)[C@H](CCCNC(=N)N)NC(=O)[C@H](CCC(N)=O)NC(=O)[C@@H]2CSSC[C@H](NC1=O)C(=O)N[C@@H](Cc1ccccc1)C(=O)N1CCC[C@H]1C(=O)N[C@@H](CCCCN)C(=O)NCC(=O)N[C@@H](Cc1ccccc1)C(=O)N2 [SFTI-FCQR Lys14] (cyclo(GFCQRSIPPICFPK); disulfide 3-11)
- IC50 (bovine β-trypsin): Inhibitor degraded
- IC50 (bovine thrombin): > 10000 nM
- IC50 (human matriptase): > 10000 nM
- IC50 (bovine α-chymotrypsin): > 10000 nM
- IC50 [2]: > 10000 nM
- half life of inhibition (in words) [3]: curtailed half life
- Half-life (Figure 3 (D)): 9 h and 10 h
- IC50 against KLK4 compared with SFTI-FCQR Asn14 (KLK4 [1]; substrate FVQR-pNA): nearly three orders of magnitude higher
- IC50 (KLK4 [1]; [8]): 98.9 ± 4.09 nM

Molecule: Sunflower trypsin inhibitor [SFTI-1, reference compound]
- concentration that completely inhibits trypsin digestion of fibrinogen (trypsin): 31.25 nM
- Ki (Thrombin; substrate N-t-Boc-LRR-AMC, Long et al. 2001): 5050 nM
- Ki (Thrombin; substrate Unknown, Luckett et al. 1999): 136 nM
- inhibition of fibrinogen proteolysis by KLK4 (KLK4 [4]): no inhibition

Molecule: CC[C@H](C)[C@@H]1NC(=O)[C@@H]2CCCN2C(=O)[C@@H]2CCCN2C(=O)[C@H]([C@@H](C)CC)NC(=O)[C@H](CO)NC(=O)[C@H](CCCNC(=N)N)NC(=O)[C@H](CCC(N)=O)NC(=O)[C@@H]2CSSC[C@H](NC1=O)C(=O)N[C@@H](Cc1ccccc1)C(=O)N1CCC[C@H]1C(=O)N[C@@H](CC(N)=O)C(=O)NCC(=O)N[C@@H](Cc1ccccc1)C(=O)N2 [SFTI-FCQR Asn14] (cyclo(GFCQRSIPPICFPN); disulfide 3-11)
- IC50 (iKLK14): 251 ± 6.65 nM
- IC50 (bovine β-trypsin; read-out: IC50): 2580 ± 508 nM
- IC50 (bovine thrombin): > 10000 nM
- IC50 (human matriptase): > 10000 nM
- IC50 (bovine α-chymotrypsin): > 10000 nM
- IC50 [2]: > 10000 nM
- inhibition of KLK12 digestion of fibrinogen (KLK12): did not inhibit
- inhibition of KLK14 digestion of fibrinogen (KLK14): did not inhibit
- half life of inhibition (in words) [3]: in the order of days
- Half-life (Figure 3 (D)): 70 h
- IC50 (KLK4 [1]): 0.063 ± 0.002 nM

B1: KLK4 (Homo sapiens) (protein)
chain: IINGEDCSPHSQPWQAALVMENELFCSGVLVHPQWVLSAAHCFQNSYTIGLGLHSLEADQEPGSQMVEASLSVRHPEYNRPLLANDLMLIKLDESVSESDTIRSISIASQCPTAGNSCLVSGWGLLANGRMPTVLQCVNVSVVSEEVCSKLYDPLYHPSMFCAGGGHDQKDSCNGDSGGPLICNGYLQGLVSFGKAPCGQVGVPGVYTNLCKFTEWIEKTVQAS
notes: pro-region of PSA (KLK3), replacing the native KLK4 pro-region (only if the E. coli preparation was used) (N, cleaved yes); made in house
- Km [5]: 194.9 ± 41.4 µM
- kcat [5]: 0.3 ± 0.032 s⁻¹
- kcat/Km [5]: 1540 ± 240 M⁻¹ s⁻¹
- Km [6]: 42.5 ± 5.9 µM
- kcat [6]: 0.57 ± 0.031 s⁻¹
- kcat/Km [6]: 13400 ± 1500 M⁻¹ s⁻¹
- Km [7]: 74.7 ± 10.3 µM
